Measured values reported in article PMC12155096 (International Journal of Molecular Sciences, 2025).
Where two headings read alike, the source gives them in different places.

What was measured:
[1] = target: CYP3A4 (Homo sapiens, UniProt P08684)
[2] = target: human CYP2C9 (Homo sapiens, UniProt P11712)
[3] = target: T1, human CYP1A2 (Homo sapiens, UniProt P05177)
T1 sequence (P05177 1-516): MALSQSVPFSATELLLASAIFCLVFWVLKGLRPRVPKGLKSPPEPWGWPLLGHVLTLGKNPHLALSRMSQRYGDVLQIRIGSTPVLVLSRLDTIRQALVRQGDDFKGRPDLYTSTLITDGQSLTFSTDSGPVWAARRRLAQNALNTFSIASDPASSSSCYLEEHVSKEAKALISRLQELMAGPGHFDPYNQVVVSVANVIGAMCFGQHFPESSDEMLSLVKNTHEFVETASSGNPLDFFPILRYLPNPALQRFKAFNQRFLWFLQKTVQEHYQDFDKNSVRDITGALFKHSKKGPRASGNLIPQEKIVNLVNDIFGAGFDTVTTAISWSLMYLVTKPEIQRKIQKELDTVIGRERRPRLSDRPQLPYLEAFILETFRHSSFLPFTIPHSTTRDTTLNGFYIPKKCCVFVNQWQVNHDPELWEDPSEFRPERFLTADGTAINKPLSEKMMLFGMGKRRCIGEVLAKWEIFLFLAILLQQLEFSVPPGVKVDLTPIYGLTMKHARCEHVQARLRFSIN

[4] = target: Photinus pyralis (firefly) luciferase (Photinus pyralis, UniProt P08659); test: biochemical; assay type: biochemical
Sequence of Photinus pyralis (firefly) luciferase (P08659 whole entry): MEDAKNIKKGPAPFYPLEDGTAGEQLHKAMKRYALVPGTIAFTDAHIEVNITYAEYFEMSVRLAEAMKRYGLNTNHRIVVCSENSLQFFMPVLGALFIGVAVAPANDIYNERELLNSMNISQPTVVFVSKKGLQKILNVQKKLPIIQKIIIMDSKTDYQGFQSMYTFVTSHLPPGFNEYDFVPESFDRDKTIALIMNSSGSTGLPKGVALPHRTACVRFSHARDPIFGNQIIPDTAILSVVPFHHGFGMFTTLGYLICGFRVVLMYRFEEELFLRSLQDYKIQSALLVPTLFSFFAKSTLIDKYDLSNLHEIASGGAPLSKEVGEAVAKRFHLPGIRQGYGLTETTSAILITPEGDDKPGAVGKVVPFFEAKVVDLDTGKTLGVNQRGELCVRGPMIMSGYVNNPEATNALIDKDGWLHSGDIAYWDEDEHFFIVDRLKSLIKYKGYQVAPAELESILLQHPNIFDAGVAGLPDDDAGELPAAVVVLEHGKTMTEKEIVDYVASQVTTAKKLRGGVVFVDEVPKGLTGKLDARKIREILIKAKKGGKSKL

[5] = target: human CYP2D6 (Homo sapiens, UniProt P10635)
Sequence of human CYP2D6 (P10635 whole entry): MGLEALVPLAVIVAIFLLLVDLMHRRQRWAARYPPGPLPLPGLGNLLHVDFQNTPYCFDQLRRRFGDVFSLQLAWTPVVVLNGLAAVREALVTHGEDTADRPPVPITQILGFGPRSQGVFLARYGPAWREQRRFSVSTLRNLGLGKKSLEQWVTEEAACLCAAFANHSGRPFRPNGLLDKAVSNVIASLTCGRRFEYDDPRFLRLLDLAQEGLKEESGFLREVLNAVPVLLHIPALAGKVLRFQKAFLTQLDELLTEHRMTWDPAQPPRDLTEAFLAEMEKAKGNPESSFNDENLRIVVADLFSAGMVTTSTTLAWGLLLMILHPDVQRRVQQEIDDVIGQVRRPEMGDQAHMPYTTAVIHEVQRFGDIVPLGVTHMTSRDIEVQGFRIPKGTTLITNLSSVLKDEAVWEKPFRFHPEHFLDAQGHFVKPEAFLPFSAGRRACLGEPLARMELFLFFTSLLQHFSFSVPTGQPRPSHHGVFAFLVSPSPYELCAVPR

[6] = target: human CYP2C19 (Homo sapiens, UniProt P33261)
Sequence of human CYP2C19 (P33261 whole entry): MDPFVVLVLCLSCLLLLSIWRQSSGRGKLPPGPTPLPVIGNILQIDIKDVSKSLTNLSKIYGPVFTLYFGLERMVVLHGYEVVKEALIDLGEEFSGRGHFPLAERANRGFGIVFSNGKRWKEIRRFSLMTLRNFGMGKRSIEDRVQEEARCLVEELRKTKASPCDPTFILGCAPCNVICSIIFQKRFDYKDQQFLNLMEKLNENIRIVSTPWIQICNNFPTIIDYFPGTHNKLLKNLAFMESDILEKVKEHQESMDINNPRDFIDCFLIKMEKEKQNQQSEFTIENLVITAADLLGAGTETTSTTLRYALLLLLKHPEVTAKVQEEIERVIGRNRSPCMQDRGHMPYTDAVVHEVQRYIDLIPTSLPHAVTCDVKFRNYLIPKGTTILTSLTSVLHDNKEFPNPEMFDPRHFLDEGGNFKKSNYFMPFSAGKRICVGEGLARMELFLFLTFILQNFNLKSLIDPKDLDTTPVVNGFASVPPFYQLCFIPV

[7] = read-out: Luciferase IC50 (half-maximal inhibitory concentration)

Sequence of human CYP2C9 (P11712 whole entry): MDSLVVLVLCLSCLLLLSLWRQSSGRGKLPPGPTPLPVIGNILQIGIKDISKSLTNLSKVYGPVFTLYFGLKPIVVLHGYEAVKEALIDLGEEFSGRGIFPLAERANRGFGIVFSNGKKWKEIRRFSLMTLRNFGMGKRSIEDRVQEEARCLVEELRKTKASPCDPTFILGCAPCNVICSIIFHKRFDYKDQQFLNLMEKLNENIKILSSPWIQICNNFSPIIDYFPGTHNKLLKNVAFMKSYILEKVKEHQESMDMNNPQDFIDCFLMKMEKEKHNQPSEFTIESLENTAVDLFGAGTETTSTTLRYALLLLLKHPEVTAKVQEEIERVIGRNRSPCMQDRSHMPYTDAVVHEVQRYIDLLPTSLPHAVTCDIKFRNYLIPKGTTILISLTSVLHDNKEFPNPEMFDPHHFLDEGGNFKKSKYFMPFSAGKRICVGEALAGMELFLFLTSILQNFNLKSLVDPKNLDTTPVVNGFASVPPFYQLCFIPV
Sequence of CYP3A4 (P08684 whole entry): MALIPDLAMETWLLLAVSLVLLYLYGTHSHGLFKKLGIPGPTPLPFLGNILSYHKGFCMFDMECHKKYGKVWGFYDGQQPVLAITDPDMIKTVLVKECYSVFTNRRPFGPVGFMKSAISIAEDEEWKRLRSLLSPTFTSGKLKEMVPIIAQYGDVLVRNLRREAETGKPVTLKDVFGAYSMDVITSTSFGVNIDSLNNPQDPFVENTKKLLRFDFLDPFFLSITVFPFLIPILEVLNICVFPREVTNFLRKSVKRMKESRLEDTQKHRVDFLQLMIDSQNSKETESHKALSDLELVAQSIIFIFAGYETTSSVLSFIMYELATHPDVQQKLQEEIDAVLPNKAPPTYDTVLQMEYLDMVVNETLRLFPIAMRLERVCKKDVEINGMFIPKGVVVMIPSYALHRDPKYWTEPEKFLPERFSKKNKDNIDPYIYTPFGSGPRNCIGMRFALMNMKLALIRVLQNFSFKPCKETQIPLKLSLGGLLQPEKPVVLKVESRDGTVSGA

NNc1nc(-c2ccccc2)cs1 [2-Hydrazino-4-phenylthiazole]
IC50 [1]: 14 µM
IC50 [2]: 8.86 µM
IC50 [3]: 0.75 µM
IC50 ([4]; read-out: Luciferase IC50): 33.9 µM
IC50 [5]: 53.2 µM
IC50 [6]: 8.06 µM

COc1cc2c(cc1N)oc1ccccc12 [2-Methoxy-3-aminodibenzofuran]
IC50 [1]: 8.5 µM
IC50 [2]: 6.23 µM
IC50 [3]: 0.63 µM
IC50 [4, 7]: 54.6 µM
IC50 [5]: 7.61 µM
IC50 [6]: 3.95 µM

Cc1cc(-c2cc(C)c(N)c(C)c2)cc(C)c1N [3,3',5,5'-Tetramethylbenzidine]
IC50 [1]: 28.1 µM
IC50 [2]: 21.2 µM
IC50 [3]: 0.24 µM
Luciferase IC50 [4]: Inactive
IC50 [5]: 16.2 µM
IC50 [6]: 12.1 µM

COc1cc(-c2ccc(N)c(OC)c2)ccc1N.Cl.Cl [3,3'-Dimethoxybenzidine dihydrochloride]
IC50 [1]: 1.71 µM
IC50 [2]: 8.91 µM
IC50 [3]: 0.82 µM
IC50 [4, 7]: 60.4 µM
IC50 [5]: 30.4 µM
IC50 [6]: 7.39 µM

CC(=O)c1ccc2ccc3ccccc3c2c1 [3-Acetylphenanthrene]
CYP3A4 Efficacy (in parenthesis) [1]: 48.54 ± 19.2 (-66 ± 4) %
IC50 [1]: 48.5 µM
CYP2C9 Efficacy (in parenthesis) [2]: 11.64 ± 0.79 (-93 ± 2) %
IC50 [2]: 11.6 µM
CYP1A2 Efficacy (in parenthesis) [3]: 1.04 ± 0.13 (-97 ± 1) %
IC50 [3]: 1.04 µM
Luciferase Efficacy (in parenthesis) [4]: 32.81 ± 2.22 (-56 ± 6) %
IC50 [4, 7]: 32.8 µM
CYP2D6 Efficacy (in parenthesis) [5]: 88.85 ± 0 (-46 ± 10) %
IC50 [5]: 88.9 µM
CYP2C19 Efficacy (in parenthesis) [6]: 22.42 ± 2.58 (-138 ± 3) %
IC50 [6]: 22.4 µM

O=C(C(=O)c1ccc(Br)cc1)c1ccc(Br)cc1 [4,4'-Dibromobenzil]
CYP3A4 IC50 (half-maximal inhibitory concentration) [1]: Inactive
CYP2C9 IC50 (half-maximal inhibitory concentration) [2]: Inactive
CYP1A2 Efficacy (in parenthesis) [3]: 9.92 ± 0 (-37 ± 3) %
IC50 [3]: 9.92 µM
Luciferase IC50 (half-maximal inhibitory concentration) [4]: Inactive
CYP2D6 IC50 (half-maximal inhibitory concentration) [5]: Inactive
CYP2C19 Efficacy (in parenthesis) [6]: 0.71 ± 0.31 (-137 ± 6) %
IC50 [6]: 0.71 µM

c1cc(CCCc2ccncc2)ccn1 [4,4'-Propane-1,3-diyldipyridine]
IC50 [1]: 0.87 µM
IC50 [2]: 5.05 µM
IC50 [3]: 1.54 µM
Luciferase IC50 [4]: Inactive
IC50 [5]: 1.54 µM
IC50 [6]: 1.5 µM

Cc1cccc2c1cc1ccc3cccc4ccc2c1c34 [7-Methylbenzo(a)pyrene]
AC50 [1]: 73 µM
CYP3A4 IC50 [1]: 72.98 ± 8.39 (145 ± 22) µM
CYP2C9 IC50 [2]: Inactive
AC50 [3]: 0.16 µM
IC50 [3]: 0.16 µM
Luciferase IC50 [4]: Inactive
CYP2D6 IC50 [5]: Inactive
CYP2C19 IC50 [6]: Inactive

O=C1CCCc2c1cc1ccc3cccc4ccc2c1c34 [9,10-Dihydrobenzo[a]pyren-7(8H)-one]
CYP3A4 Efficacy (in parenthesis) [1]: 9.09 ± 1.05 (-72 ± 4) %
IC50 [1]: 9.09 µM
CYP2C9 Efficacy (in parenthesis) [2]: 5.32 ± 0.68 (-71 ± 3) %
IC50 [2]: 5.32 µM
CYP1A2 Efficacy (in parenthesis) [3]: 0.28 ± 0.05 (-100 ± 3) %
IC50 [3]: 0.28 µM
Luciferase Efficacy (in parenthesis) [4]: 9.87 ± 1.68 (-53 ± 7) %
IC50 [4, 7]: 9.87 µM
CYP2D6 IC50 (half-maximal inhibitory concentration) [5]: Inactive
CYP2C19 Efficacy (in parenthesis) [6]: 26.27 ± 7.32 (-125 ± 17) %
IC50 [6]: 26.3 µM

N#Cc1cc2ccccc2c2ccccc12 [9-Cyanophenanthrene]
CYP3A4 IC50 [1]: Inactive
IC50 [2]: 39.3 µM
IC50 [3]: 0.06 µM
IC50 ([4]; read-out: Luciferase IC50): 62.4 µM
CYP2D6 IC50 [5]: Inactive
IC50 [6]: 29.3 µM

Oc1cc2ccccc2c2ccccc12 [9-Phenanthrol]
CYP3A4 Efficacy (in parenthesis) [1]: 6.1 ± 0.4 (-91 ± 4) %
CYP2C9 Efficacy (in parenthesis) [2]: 4.41 ± 1.07 (-106 ± 2) %
IC50 [2]: 4.41 µM
CYP1A2 Efficacy (in parenthesis) [3]: 0.05 ± 0.01 (-99 ± 4) %
IC50 [3]: 0.05 µM
Luciferase Efficacy (in parenthesis) [4]: 71.29 ± 8.19 (-61 ± 21) %
IC50 [4, 7]: 71.3 µM
CYP2D6 Efficacy (in parenthesis) [5]: 2.53 ± 0.29 (-109 ± 3) %
IC50 [5]: 2.53 µM
CYP2C19 Efficacy (in parenthesis) [6]: 1.22 ± 0.17 (-132 ± 15) %
IC50 [6]: 1.22 µM

O=C1NCN(c2ccccc2)C12CCN(CCCOc1ccc(F)cc1)CC2 [AMI-193]
AC50 [1]: 4.72 µM
CYP3A4 IC50 [1]: 4.72 ± 0.31 (133 ± 10) µM
CYP2C9 IC50 [2]: Inactive
CYP1A2 IC50 [3]: Inactive
Luciferase IC50 [4]: Inactive
AC50 [5]: 0.6 µM
IC50 [5]: 0.6 µM
CYP2C19 AC50 (half-maximal activity concentration) [6]: Inconclusive inhibitor
CYP2C19 IC50 [6]: Inactive

COC(=O)c1cc(Cl)ccc1NS(=O)(=O)C(F)(F)F [Amidoflumet]
CYP3A4 IC50 (half-maximal inhibitory concentration) [1]: Inactive
CYP2C9 IC50 (half-maximal inhibitory concentration) [2]: Inactive
IC50 [3]: 0.91 µM
Luciferase IC50 (half-maximal inhibitory concentration) [4]: Inactive
CYP2D6 IC50 (half-maximal inhibitory concentration) [5]: Inactive
CYP2C19 IC50 (half-maximal inhibitory concentration) [6]: Inactive

COP(=S)(NC(C)C)Oc1ccc(C)cc1[N+](=O)[O-] (stereo not drawn) [Amiprofos-methyl]
CYP3A4 Efficacy (in parenthesis) [1]: 0.55 ± 0.08 (-87 ± 1) %
IC50 [1]: 0.55 µM
CYP2C9 Efficacy (in parenthesis) [2]: 2.74 ± 0.38 (-109 ± 3) %
IC50 [2]: 2.74 µM
CYP1A2 Efficacy (in parenthesis) [3]: 12.35 ± 5.02 (-104 ± 9) %
IC50 [3]: 12.3 µM
Luciferase IC50 (half-maximal inhibitory concentration) [4]: Inactive
CYP2D6 Efficacy (in parenthesis) [5]: 41.71 ± 5.32 (-58 ± 14) %
IC50 [5]: 41.7 µM
CYP2C19 Efficacy (in parenthesis) [6]: 0.41 ± 0.19 (-132 ± 27) %
IC50 [6]: 0.41 µM

COP(=S)(OC)SCn1nnc2ccccc2c1=O [Azinphos-methyl]
CYP3A4 Efficacy (in parenthesis) [1]: 11.45 ± 2.62 (-87 ± 5) %
CYP2C9 Efficacy (in parenthesis) ([2]; human): 3.88 ± 0.66 (-99 ± 12) %
CYP1A2 Efficacy (in parenthesis) ([3]; human): 28.26 ± 0 (-93 ± 8) %
Luciferase Efficacy (in parenthesis) [4]: 47.70 ± 13.48 (-40 ± 2) %
CYP2D6 Efficacy (in parenthesis) ([5]; human): 55.48 ± 13.48 (-75 ± 13) %
CYP2C19 Efficacy (in parenthesis) ([6]; human): 1.01 ± 0.12 (-134 ± 9) %

COc1ccc(OC)c(N=Nc2c(O)ccc3ccccc23)c1 [C.I. Solvent Red 80]
IC50 [1]: 2.79 µM
IC50 [2]: 6.33 µM
IC50 [3]: 0.75 µM
IC50 [4, 7]: 6.97 µM
IC50 [5]: 13.6 µM
IC50 [6]: 8 µM

Cl.Clc1ccc(Cn2c(CN3CCCC3)nc3ccccc32)cc1 [Clemizole hydrochloride]
CYP3A4 Efficacy (in parenthesis) [1]: 6.24 ± 1.17 (-72 ± 1) %
IC50 [1]: 6.24 µM
CYP2C9 Efficacy (in parenthesis) [2]: 16.12 ± 1.09 (-82 ± 4) %
IC50 [2]: 16.1 µM
CYP1A2 Efficacy (in parenthesis) [3]: 17.64 ± 0.46 (-72 ± 13) %
IC50 [3]: 17.6 µM
Luciferase IC50 (half-maximal inhibitory concentration) [4]: Inactive
CYP2D6 Efficacy (in parenthesis) [5]: 1.56 ± 0.18 (-101 ± 1) %
IC50 [5]: 1.56 µM
CYP2C19 Efficacy (in parenthesis) [6]: 0.68 ± 0.17 (-140 ± 7) %
IC50 [6]: 0.68 µM

Cl.Clc1ccc(C(OCCN2CCCCC2)c2ccccc2)cc1 (stereo not drawn) [Cloperastine hydrochloride]
IC50 [1]: 4.43 µM
CYP2C9 IC50 [2]: Inactive
IC50 [3]: 22.5 µM
Luciferase IC50 [4]: Inactive
IC50 [5]: 0.17 µM
IC50 [6]: 18.5 µM

CC(=O)O.CC(C)c1ccc2c(c1)CC[C@H]1[C@](C)(CN)CCC[C@]21C [Dehydroabietylamine acetate]
CYP3A4 Efficacy (in parenthesis) [1]: 0.41 ± 0.13 (-82 ± 3) %
IC50 [1]: 0.41 µM
CYP2C9 Efficacy (in parenthesis) [2]: 42.19 ± 26.12 (-70 ± 20) %
IC50 [2]: 42.2 µM
CYP1A2 Efficacy (in parenthesis) [3]: 38.64 ± 5.32 (-53 ± 5) %
IC50 [3]: 38.6 µM
Luciferase IC50 (half-maximal inhibitory concentration) [4]: Inactive
CYP2D6 Efficacy (in parenthesis) [5]: 1.51 ± 0.43 (-90 ± 10) %
IC50 [5]: 1.51 µM
CYP2C19 Efficacy (in parenthesis) [6]: 14.98 ± 6.91 (-121 ± 11) %
IC50 [6]: 15 µM

C[C@@H]1C[C@H]2[C@@H]3CCC4=CC(=O)C=C[C@]4(C)[C@@]3(F)[C@@H](O)C[C@]2(C)[C@@]1(O)C(=O)COC(=O)c1ccncc1 [Dexamethasone isonicotinate]
IC50 [1]: 0.81 µM
IC50 [2]: 7.32 µM
CYP1A2 IC50 (half-maximal inhibitory concentration) [3]: Inactive
Luciferase IC50 (half-maximal inhibitory concentration) [4]: Inactive
IC50 [5]: 9.5 µM
IC50 [6]: 23.4 µM

COS(=O)(=O)[O-].Cn1c(-c2ccccc2)cc(-c2ccccc2)[n+]1C [Difenzoquat metilsulfate]
CYP3A4 IC50 [1]: Inactive
CYP2C9 IC50 [2]: Inactive
CYP1A2 IC50 [3]: Inactive
Luciferase IC50 [4]: Inactive
IC50 [5]: 0.44 µM
CYP2C19 IC50 [6]: Inactive

C=CC(=O)OCC(CO)(COCC(COC(=O)C=C)(COC(=O)C=C)COC(=O)C=C)COC(=O)C=C [Dipentaerythritol pentaacrylate]
CYP3A4 Efficacy (in parenthesis) [1]: 0.43 ± 0.03 (-94 ± 4) %
IC50 [1]: 0.43 µM
CYP2C9 Efficacy (in parenthesis) [2]: 7.3 ± 0.49 (-101 ± 2) %
IC50 [2]: 7.3 µM
CYP1A2 IC50 (half-maximal inhibitory concentration) [3]: Inactive
Luciferase IC50 (half-maximal inhibitory concentration) [4]: Inactive
CYP2D6 Efficacy (in parenthesis) [5]: 26.69 ± 11.98 (-72 ± 6) %
IC50 [5]: 26.7 µM
CYP2C19 Efficacy (in parenthesis) [6]: 8.87 ± 1.02 (-135 ± 9) %
IC50 [6]: 8.87 µM

CCc1ccc(C(=O)C(C)CN2CCCCC2)cc1.Cl (stereo not drawn) [Eperisone hydrochloride]
CYP3A4 IC50 (half-maximal inhibitory concentration) [1]: Inactive
CYP2C9 IC50 (half-maximal inhibitory concentration) [2]: Inactive
IC50 [3]: 29.2 µM
Luciferase IC50 (half-maximal inhibitory concentration) [4]: Inactive
IC50 [5]: 0.51 µM
IC50 [6]: 4.72 µM
